For 17 compounds, IC50 results are on record in patent publication US12540143B2, “Methods and compositions for targeted protein degradation” (Ranok Therapeutics (Hangzhou) Co. Ltd., priority 2019, dated 2026).

Where a name gives a salt, the structure may show the parent alone. Some results are limits rather than exact numbers.

In one data set the test system is MV4-11 cells. As to the kind of experiment: MV4-11 Cytotoxicity Assay. The format is cell-based, human. Particulars: 72 hr, CCK-8; read-out: MV4-11 cytotoxicity.
`CCc1cc(-c2nnc(C(N)=O)n2-c2ccc(CN3CCN(CC4CCN(C(=O)C[C@@H]5N=C(c6ccc(Cl)cc6)c6c(sc(C)c6C)-n6c(C)nnc65)CC4)CC3)cc2)c(O)cc1O` [Compound 121, (S)-4-(4-((4-((1-(2-(4-(4-chlorophenyl)-2,3,9-trimethyl-6H-thieno[3,2-f][1,2,4]triazolo[4,3-a][1,4]diazepin-6-yl)acetyl)piperidin-4-yl)methyl)piperazin-1-yl)methyl)phenyl)-5-(5-ethyl-2,4-dihydroxyphenyl)-4H-1,2,4-triazole-3-carboxamide hydrochloride]: the IC50 is less than 0.1 µM.
Take `CC[C@@H](C)Nc1cc(C(=O)NC2C[C@H]3CC[C@H](C2)N3c2ccc(C(=O)c3ccc(CN4CCN(CC5CCN(C(=O)C[C@@H]6N=C(c7ccc(Cl)cc7)c7c(sc(C)c7C)-n7c(C)nnc76)CC5)CC4)cc3)cn2)c(C)cc1C(N)=O` (some centres unmarked) [Compound 25]: the IC50 is 0.1 to 1 µM.
Take `CCn1c(=O)/c(=C2\Sc3ccccc3N2C)s/c1=C\c1cccc[n+]1CCNC(=O)C[C@@H]1N=C(c2ccc(Cl)cc2)c2c(sc(C)c2C)-n2c(C)nnc21` [Compound 8]: the IC50 was greater than 1 µM.

The same data set, now with this note: Homo sapiens, MV4-11, 72 h, read-out: MV4-11 cytotoxicity.
On to `CCc1cc(-c2nnc(C(=O)NCC(F)(F)F)n2-c2ccc(CN3CCN(CC4CCN(C(=O)C[C@@H]5N=C(c6ccc(Cl)cc6)c6c(sc(C)c6C)-n6c(C)nnc65)CC4)CC3)cc2)c(O)cc1O` [Compound 14, 4-(4-((4-((1-(2-((6S)-4-(4-chlorophenyl)-2,3,9-trimethyl-6H-thieno[3,2-f][1,2,4]triazolo[4,3-a][1,4]diazepin-6-yl)acetyl)piperidin-4-yl)methyl)piperazin-1-yl)methyl)phenyl)-5-(5-ethyl-2,4-dihydroxyphenyl)-N-(2,2,2-trifluoroethyl)-4H-1,2,4-triazole-3-carboxamide, trifluoroacetic acid], for which the IC50 is less than 0.1 µM.

Still in this data set, the particulars now being: Homo sapiens, MV4-11; 72 hr, CCK-8; read-out: MV4-11 cytotoxicity.
Turning to `CCNC(=O)c1nnc(-c2cc(CC)c(O)cc2O)n1-c1ccc(CC2CCN(CC3CCN(C(=O)C[C@@H]4N=C(c5ccc(Cl)cc5)c5c(sc(C)c5C)-n5c(C)nnc54)CC3)CC2)cc1` [Compound 87, (S)-4-(4-((1-((1-(2-(4-(4-chlorophenyl)-2,3,9-trimethyl-6H-thieno[3,2-f][1,2,4]triazolo[4,3-a][1,4]diazepin-6-yl)acetyl)piperidin-4-yl)methyl)piperidin-4-yl)methyl)phenyl)-N-ethyl-5-(5-ethyl-2,4-dihydroxyphenyl)-1H-1,2,414-triazole-3-carboxamide, trifluoroacetic acid], the IC50 was less than 0.1 µM.
For `Cc1sc2c(c1C)C(c1ccc(Cl)cc1)=N[C@@H](CC(=O)N1CCC(CN3CCC(Cc4ccc(-n5c(C(=O)NCC(F)(F)F)nnc5-c5cc(C(C)C)c(O)cc5O)cc4)CC3)CC1)c1nnc(C)n1-2` [Compound 85, (S)-4-(4-((1-((1-(2-(4-(4-chlorophenyl)-2,3,9-trimethyl-6H-thieno[3,2-f][1,2,4]triazolo[4,3-a][1,4]diazepin-6-yl)acetyl)piperidin-4-yl)methyl)piperidin-4-yl)methyl)phenyl)-5-(2,4-dihydroxy-5-isopropylphenyl)-N-(2,2,2-trifluoroethyl)-4H-1,2,4-triazole-3-carboxamide, formic acid], the IC50 is less than 0.1 µM.
Regarding `CCCc1cc(-c2nnc(O)n2-c2ccc(CN3CCN(CC4CCN(C(=O)C[C@@H]5N=C(c6ccc(Cl)cc6)c6c(sc(C)c6C)-n6c(C)nnc65)CC4)CC3)cc2)c(O)cc1O` [Compound 11, (S)-2-(4-(4-chlorophenyl)-2,3,9-trimethyl-6H-thieno[3,2-f][1,2,4]triazolo[4,3-a][1,4]diazepin-6-yl)-1-(4-((4-(4-(3-(2,4-dihydroxy-5-propylphenyl)-5-hydroxy-4H-1,2,4-triazol-4-yl)benzyl)piperazin-1-yl)methyl)piperidin-1-yl)ethan-1-one, trifluoroacetic acid], the IC50 was less than 0.1 µM.
Turning to `Cc1sc2c(c1C)C(c1ccc(Cl)cc1)=N[C@@H](CC(=O)N1CCC(N3CCN(Cc4ccc(-n5c(O)nnc5-c5cc(C(C)C)c(O)cc5O)cc4)CC3)CC1)c1nnc(C)n1-2` [Compound 42, (S)-2-(4-(4-chlorophenyl)-2,3,9-trimethyl-6H-thieno[3,2-f][1,2,4]triazolo[4,3-a][1,4]diazepin-6-yl)-1-(4-(4-(4-(3-(2,4-dihydroxy-5-isopropylphenyl)-5-hydroxy-4H-1,2,4-triazol-4-yl)benzyl)piperazin-1-yl)piperidin-1-yl)ethan-1-one, trifluoroacetic acid], the IC50 was less than 0.1 µM.
As to `Cc1sc2c(c1C)C(c1ccc(Cl)cc1)=N[C@@H](CC(=O)N1CCC(CN3CCN(Cc4ccc(-n5c(O)nnc5-c5ccc(O)cc5O)cc4)CC3)CC1)c1nnc(C)n1-2` [Compound 4, 2-((6S)-4-(4-chlorophenyl)-2,3,9-trimethyl-6H-thieno[3,2-f][1,2,4]triazolo[4,3-a][1,4]diazepin-6-yl)-1-(4-((4-(4-(3-(2,4-dihydroxyphenyl)-5-hydroxy-4H-1,2,4-triazol-4-yl)benzyl)piperazin-1-yl)methyl)piperidin-1-yl)ethanone, trifluoroacetic acid], the IC50 lay in the range of 0.1 to 1 µM.
On to `Cc1sc2c(c1C)C(c1ccc(Cl)cc1)=N[C@@H](CC(=O)NCCOc1ccc(-n3c(S)nnc3-c3cc(C(C)C)c(O)cc3O)cc1)c1nnc(C)n1-2` [Compound 32, (S)-2-(4-(4-chlorophenyl)-2,3,9-trimethyl-6H-thieno[3,2-f][1,2,4]triazolo[4,3-a][1,4]diazepin-6-yl)-N-(2-(4-(3-(2,4-dihydroxy-5-isopropylphenyl)-5-mercapto-4H-1,2,4-triazol-4-yl)phenoxy)ethyl)acetamide], for which the IC50 was in the range of 0.1 to 1 µM.
On to `Cc1sc2c(c1C)C(c1ccc(Cl)cc1)=N[C@@H](CC(=O)N1CCC(CN3CCC(Cc4ccc(-n5c(O)nnc5-c5cc(C(C)C)c(O)cc5O)cc4)CC3)CC1)c1nnc(C)n1-2` [Compound 94, (S)-2-(4-(4-chlorophenyl)-2,3,9-trimethyl-6H-thieno[3,2-f][1,2,4]triazolo[4,3-a][1,4]diazepin-6-yl)-1-(4-((4-(4-(3-(2,4-dihydroxy-5-isopropylphenyl)-5-hydroxy-4H-1,2,4-triazol-4-yl)benzyl)piperidin-1-yl)methyl)piperidin-1-yl)ethan-1-one, trifluoroacetic acid], for which the IC50 was less than 0.1 µM.
Turning to `CCN(CC)CCNC(=O)c1nnc(-c2ccc(O)cc2O)n1-c1ccc(CN2CCN(CC3CCN(C(=O)C[C@@H]4N=C(c5ccc(Cl)cc5)c5c(sc(C)c5C)-n5c(C)nnc54)CC3)CC2)cc1` [Compound 111, (S)-4-(4-((4-((1-(2-(4-(4-chlorophenyl)-2,3,9-trimethyl-6H-thieno[3,2-f][1,2,4]triazolo[4,3-a][1,4]diazepin-6-yl)acetyl)piperidin-4-yl)methyl)piperazin-1-yl)methyl)phenyl)-N-(2-(diethylamino)ethyl)-5-(2,4-dihydroxyphenyl)-4H-1,2,4-triazole-3-carboxamide, trifluoroacetic acid], the IC50 was less than 0.1 µM.
For `Cc1sc2c(c1C)C(c1ccc(Cl)cc1)=N[C@@H](CC(=O)N1CCC(CN3CCN(Cc4ccc(-n5c(C(=O)NC(C)C)nnc5-c5cc(C(C)C)c(O)cc5O)cc4)CC3)CC1)c1nnc(C)n1-2` [Compound 108, (S)-4-(4-((4-((1-(2-(4-(4-chlorophenyl)-2,3,9-trimethyl-6H-thieno[3,2-f][1,2,4]triazolo[4,3-a][1,4]diazepin-6-yl)acetyl)piperidin-4-yl)methyl)piperazin-1-yl)methyl)phenyl)-5-(2,4-dihydroxy-5-isopropylphenyl)-N-isopropyl-4H-1,2,4-triazole-3-carboxamide, trifluoroacetic acid], the IC50 lay within 0.1 to 1 µM.
The same measure, in the same setting: the figure for `Cc1sc2c(c1C)C(c1ccc(Cl)cc1)=N[C@@H](CC(=O)N1CCN(c3ccc(-n4c(O)nnc4-c4cc(C(C)C)c(O)cc4O)cc3)CC1)c1nnc(C)n1-2` [Compound 79, (S)-2-(4-(4-chlorophenyl)-2,3,9-trimethyl-6H-thieno[3,2-f][1,2,4]triazolo[4,3-a][1,4]diazepin-6-yl)-1-(4-(4-(3-(2,4-dihydroxy-5-isopropylphenyl)-5-hydroxy-4H-1,2,4-triazol-4-yl)phenyl)piperazin-1-yl)ethan-1-one] is less than 0.1 µM; for `CCN(Cc1ccc(OCCCNC(=O)C[C@@H]2N=C(c3ccc(Cl)cc3)c3c(sc(C)c3C)-n3c(C)nnc32)cc1)Cc1ccc(-n2c(O)nnc2-c2cc(C(C)C)c(O)cc2O)cc1` [Compound 100, (S)-2-(4-(4-chlorophenyl)-2,3,9-trimethyl-6H-thieno[3,2-f][1,2,4]triazolo[4,3-a][1,4]diazepin-6-yl)-N-(3-(4-(((4-(3-(2,4-dihydroxy-5-isopropylphenyl)-5-hydroxy-4H-1,2,4-triazol-4-yl)benzyl)(ethyl)amino)methyl)phenoxy)propyl)acetamide, formic acid] it is less than 0.1 µM.
With `Cc1sc2c(c1C)C(c1ccc(Cl)cc1)=N[C@@H](CC(=O)NCc1ccc(CN3CCC(Cc4ccc(-n5c(C(=O)NCC(F)(F)F)nnc5-c5cc(C(C)C)c(O)cc5O)cc4)CC3)cc1)c1nnc(C)n1-2` [Compound 96, (S)-4-(4-((1-(4-((2-(4-(4-chlorophenyl)-2,3,9-trimethyl-6H-thieno[3,2-f][1,2,4]triazolo[4,3-a][1,4]diazepin-6-yl)acetamido)methyl)benzyl)piperidin-4-yl)methyl)phenyl)-5-(2,4-dihydroxy-5-isopropylphenyl)-N-(2,2,2-trifluoroethyl)-4H-1,2,4-triazole-3-carboxamide, trifluoroacetic acid], the IC50 is less than 0.1 µM.
As for `Cc1sc2c(c1C)C(c1ccc(Cl)cc1)=N[C@@H](CC(=O)Nc1ccc(NC(=O)C3CCN(Cc4ccc(-n5c(O)nnc5-c5cc(C(C)C)c(O)cc5O)cc4)CC3)cc1)c1nnc(C)n1-2` [Compound 72, N-(4-(2-((6S)-4-(4-chlorophenyl)-2,3,9-trimethyl-6H-thieno[3,2-f][1,2,4]triazolo[4,3-a][1,4]diazepin-6-yl)acetamido)phenyl)-1-(4-(3-(2,4-dihydroxy-5-isopropylphenyl)-5-hydroxy-4H-1,2,4-triazol-4-yl)benzyl)piperidine-4-carboxamide, trifluoroacetic acid], the IC50 is less than 0.1 µM.
